Like-named read-outs stand apart in the source and are kept apart here. Starred links: 1 amine or outer side, 2 acyl side, 3 side chain; linkers in the order of their positions; H or OH if unused. Positions of bridges follow the written chain, without caps; N, C: chain ends. Non-standard residues stand in square brackets, D forms with d. Residues, ends and D or L forms follow the SMILES beside them. ξ: configuration not given here. *: point of attachment. X1 = O=C(CCOCC(COCCC(=O)NCCOCCOCCOCCOCC1OCC(Nc2cncc(C(F)(F)F)n2)C(O)C1O)NCC(=O)*)NCCOCCOCCOCCOCC1OCC(Nc2cncc(C(F)(F)F)n2)C(O)C1O; ξPro(4ξ-NH2) = O=C(C1CC(N[*:3])CN1[*:1])[*:2]
Assays:
ASGPR = target: T1, ASGPR (Homo sapiens, UniProt P07306); experiment: ASGPR SPR binding
T1 construct: biotin (biotinylated)
T1 sequence (P07306 1-291): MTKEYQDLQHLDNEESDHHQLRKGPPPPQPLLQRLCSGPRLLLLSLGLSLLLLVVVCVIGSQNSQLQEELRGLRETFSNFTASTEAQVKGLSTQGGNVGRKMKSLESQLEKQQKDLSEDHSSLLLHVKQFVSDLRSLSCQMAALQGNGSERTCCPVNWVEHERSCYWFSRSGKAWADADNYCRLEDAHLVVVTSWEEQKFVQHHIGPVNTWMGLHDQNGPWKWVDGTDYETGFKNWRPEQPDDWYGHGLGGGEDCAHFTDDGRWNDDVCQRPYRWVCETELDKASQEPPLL

[1] = target: T2, ASGPR receptor on HepG2 cells (ternary complex with AF488-labeled antibody) (Homo sapiens, UniProt P07306); experiment: Ternary complex formation assay (flow cytometry, cell-associated AF488 fluorescence); assay type: cell-based
T2 construct: host or cells: HepG2
T2 sequence (P07306 1-291): T1 sequence (P07306 1-291)
T2 sequence (P07307 1-311 partner): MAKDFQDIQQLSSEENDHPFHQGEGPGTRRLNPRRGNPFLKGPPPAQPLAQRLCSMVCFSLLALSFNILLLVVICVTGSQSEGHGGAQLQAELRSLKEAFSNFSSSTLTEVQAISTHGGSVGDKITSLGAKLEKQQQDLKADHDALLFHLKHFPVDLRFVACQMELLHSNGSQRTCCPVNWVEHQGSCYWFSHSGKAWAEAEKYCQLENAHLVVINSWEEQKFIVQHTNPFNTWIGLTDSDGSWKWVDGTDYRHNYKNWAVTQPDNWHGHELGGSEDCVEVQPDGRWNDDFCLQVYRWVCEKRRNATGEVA
Protocol: Human IgG (Sigma-Aldrich, 14506) was covalently labeled with Alexa Fluor 488 using the Alexa Fluor™ 488 Protein Labeling Kit (Thermo Fisher, A10235) following the manufacturer's instructions. HepG2 cells (ATCC, HB-8065) were cultured to about 70% confluence and harvested by trypsinization. Single cell suspensions of HepG2 cells were plated in 96 well plates at 1×10^5 cells/well in cell culture media (DMEM supplemented with 10% FBS) and placed at 4° C. For studies using human IgG, cells were incubated with 100 nM AF488-labeled anti-human IgG and serial dilutions of IgG-based degrader for 1 hour at 4° C. For studies using DNP, cells were incubated with 100 nM AF488-labeled polyclonal rabbit anti-dinitrophenyl (DNP) antibodies (ThermoFisher) and serial dilutions of DNP-based degrader for 1 hour at 4° C. After washing once with ice-cold PBS containing 0.1% BSA and 0.1% sodium azide, cells were resuspended in 150 uL PBS+0.1% BSA and cell-associated AF488 fluorescence was measured by flow cytometry using the iQue® Screener PLUS Flow Cytometer (IntelliCyt). […]

IgG = IgG SPR binding; conditions: second table, read-out: IgG KD
[2] = read-out: ASGPR KD, second table
[3] = read-out: TCF EC50, 100 nM AF488-labeled antibody, 1 hour at 4° C., the 25th table, class symbols
[4] = second table, read-out: ASGPR KD
[5] = 100 nM AF488-labeled antibody, 1 hour at 4° C., the 25th table, class symbols, read-out: TCF EC50

Structure (SMILES)	Kd (IgG) [nM]	further results
CC(C)CC1NC(=O)C(Cc2cnc[nH]2)NC(=O)C(Cc2c[nH]c3ccccc23)NC(=O)C(C)NC(=O)C2CSSCC(NC(=O)C(Cc3c[nH]c4ccccc34)NC(=O)C(C(C)C)NC(=O)C(CC(C)C)NC(=O)C(CCC(=O)N(C)C)NC(=O)CNC1=O)C(=O)NC(C(C)O)C(=O)N1CCCC1C(=O)N1CC(NC(=O)CNC(COCCC(=O)NCCOCCOCCOCCOCC3OCC(Nc4cncc(C(F)(F)F)n4)C(O)C3O)COCCC(=O)NCCOCCOCCOCCOCC3OCC(Nc4cncc(C(F)(F)F)n4)C(O)C3O)CC1C(=O)NC(CC(=O)O)C(=O)N2 (centres unmarked) [compound 53]	< 100	Kd (ASGPR; [2]): < 100 nM; EC50 [1, 3]: < 100 nM
CC(C)CC1NC(=O)C(Cc2cnc[nH]2)NC(=O)C(Cc2c[nH]c3ccccc23)NC(=O)C(C)NC(=O)C2CSSCC(NC(=O)C(Cc3c[nH]c4ccccc34)NC(=O)C(C(C)C)NC(=O)C(CC(C)C)NC(=O)C(CCC(=O)N(C)C)NC(=O)CNC1=O)C(=O)NC(C(C)O)C(=O)N1CCCC1C(=O)N1CC(NC(=O)CNC(COCCC(=O)NCCOCCOCCOCCOCC3OCC(Nc4cncc(C(F)(F)F)n4)C(O)C3O)COCCC(=O)NCCOCCOCCOCCOCC3OCC(Nc4cncc(C(F)(F)F)n4)C(O)C3O)CC1C(=O)NC(C)C(=O)N2 (centres unmarked) [compound 72] (cyclo(GE(NMe2)LVWCTP[ξPro(4ξ-NH2)](X1)ACAWHL); disulfide 6-11; configuration not given here)	< 100	Kd (ASGPR; [2]): < 100 nM; EC50 [1, 3]: < 100 nM
CC(C)CC1NC(=O)C(Cc2cnc[nH]2)NC(=O)C(Cc2c[nH]c3ccccc23)NC(=O)C(C)NC(=O)C2CSSCC(NC(=O)C(Cc3c[nH]c4ccccc34)NC(=O)C(C(C)C)NC(=O)C(CC(C)C)NC(=O)C(CCC(=O)O)NC(=O)CNC1=O)C(=O)NC(C(C)O)C(=O)N1CCCC1C(=O)N1CC(NC(=O)c3ccc(N4CCC(CN5CCN(CC6OCC(Nc7cncc(C(F)(F)F)n7)C(O)C6O)CC5)CC4)cc3)CC1C(=O)NC(CC(=O)O)C(=O)N2 (centres unmarked) [compound 98]	< 100	EC50 [1, 3]: < 100 nM
CC(=O)NC1C(OCCOCCOCCOCCNC(=O)CCOCC(COCCC(=O)NCCOCCOCCOCCOC2OC(CO)C(O)C(O)C2NC(C)=O)(COCCC(=O)NCCOCCOCCOCCOC2OC(CO)C(O)C(O)C2NC(C)=O)NC(=O)CCCCCn2cc(CCCC(=O)NCCOCCOCCOCCOCCC(=O)NC3CC4C(=O)NC(CC(=O)O)C(=O)NC5CSSCC(NC(=O)C(Cc6c[nH]c7ccccc67)NC(=O)C(C(C)C)NC(=O)C(CC(C)C)NC(=O)C(CCC(=O)O)NC(=O)CNC(=O)C(CC(C)C)NC(=O)C(Cc6cnc[nH]6)NC(=O)C(Cc6c[nH]c7ccccc67)NC(=O)C(C)NC5=O)C(=O)NC(C(C)O)C(=O)N5CCCC5C(=O)N4C3)nn2)OC(CO)C(O)C1O (centres unmarked) [compound 87]	< 100	Kd (ASGPR; [2]): > 1000 nM; EC50 [1, 3]: > 1000 nM
CC(C)CC1NC(=O)C(Cc2cnc[nH]2)NC(=O)C(Cc2c[nH]c3ccccc23)NC(=O)C(C)NC(=O)C2CSSCC(NC(=O)C(Cc3c[nH]c4ccccc34)NC(=O)C(C(C)C)NC(=O)C(CC(C)C)NC(=O)C(CCC(=O)O)NC(=O)CNC1=O)C(=O)NC(C(C)O)C(=O)N1CCCC1C(=O)N1CC(NC(=O)CCOCCOCCOCCOCCNC(=O)CCCc3cn(CCCCCC(=O)NC(COCCC(=O)NCCOCCOCCOCCOCC4OCC(Nc5nccc(C(F)(F)F)n5)C(O)C4O)(COCCC(=O)NCCOCCOCCOCCOCC4OCC(Nc5nccc(C(F)(F)F)n5)C(O)C4O)COCCC(=O)NCCOCCOCCOCCOCC4OCC(Nc5nccc(C(F)(F)F)n5)C(O)C4O)nn3)CC1C(=O)NC(CC(=O)O)C(=O)N2 (centres unmarked) [compound 88]	< 100	Kd (ASGPR; [4]): < 100 nM; EC50 [1, 5]: < 100 nM
CC(C)CC1NC(=O)C(Cc2cnc[nH]2)NC(=O)C(Cc2c[nH]c3ccccc23)NC(=O)C(C)NC(=O)C2CSSCC(NC(=O)C(Cc3c[nH]c4ccccc34)NC(=O)C(C(C)C)NC(=O)C(CC(C)C)NC(=O)C(CCC(=O)O)NC(=O)CNC1=O)C(=O)NC(C(C)O)C(=O)N1CCCC1C(=O)N1CC(NC(=O)CCCc3cn(CC(=O)NC(COCCC(=O)NCCOCCOCCOCCOCC4OCC(Nc5cncc(C(F)(F)F)n5)C(O)C4O)COCCC(=O)NCCOCCOCCOCCOCC4OCC(Nc5cncc(C(F)(F)F)n5)C(O)C4O)nn3)CC1C(=O)NC(CC(=O)O)C(=O)N2 (centres unmarked) [compound 77]	< 100	EC50 [1, 5]: < 100 nM
CNC(=O)CCC1NC(=O)CNC(=O)C(CC(C)C)NC(=O)C(Cc2cnc[nH]2)NC(=O)C(Cc2c[nH]c3ccccc23)NC(=O)C(C)NC(=O)C2CSSCC(NC(=O)C(Cc3c[nH]c4ccccc34)NC(=O)C(C(C)C)NC(=O)C(CC(C)C)NC1=O)C(=O)NC(C(C)O)C(=O)N1CCCC1C(=O)N1CC(N)CC1C(=O)NC(CC(=O)O)C(=O)N2 (centres unmarked) [compound 64]		Kd (ASGPR; [4]): < 100 nM
COC1OC(Cn2cc(CCCC(=O)NC3CC4C(=O)NC(CC(=O)O)C(=O)NC5CSSCC(NC(=O)C(Cc6c[nH]c7ccccc67)NC(=O)C(C(C)C)NC(=O)C(CC(C)C)NC(=O)C(CCC(=O)O)NC(=O)CNC(=O)C(CC(C)C)NC(=O)C(Cc6cnc[nH]6)NC(=O)C(Cc6c[nH]c7ccccc67)NC(=O)C(C)NC5=O)C(=O)NC(C(C)O)C(=O)N5CCCC5C(=O)N4C3)nn2)C(O)C(O)C1NC(C)=O (centres unmarked) [compound 79]	< 100	Kd (ASGPR; [4]): > 1000 nM
CC(C)CC1NC(=O)C(Cc2cnc[nH]2)NC(=O)C(Cc2c[nH]c3ccccc23)NC(=O)C(C)NC(=O)C2CSSCC(NC(=O)C(Cc3c[nH]c4ccccc34)NC(=O)C(C(C)C)NC(=O)C(CC(C)C)NC(=O)C(CCC(=O)O)NC(=O)CNC1=O)C(=O)NC(C(C)O)C(=O)N1CCCC1C(=O)N1CC(NC(=O)CCCc3cn(CC45COC(O4)C(NC(=O)C(F)(F)F)C(O)C5O)nn3)CC1C(=O)NC(CC(=O)O)C(=O)N2 (centres unmarked) [compound 104]	< 100	EC50 ([1]; read-out: TCF EC50, 100 nM AF488-labeled antibody, 1 hour at 4° C., the 25th table, numeric bounds, nM from footnote): > 10000 nM
CC(C)CC1NC(=O)C(Cc2cnc[nH]2)NC(=O)C(Cc2c[nH]c3ccccc23)NC(=O)C(C)NC(=O)C2CSSCC(NC(=O)C(Cc3c[nH]c4ccccc34)NC(=O)C(C(C)C)NC(=O)C(CC(C)C)NC(=O)C(CCC(=O)O)NC(=O)CNC1=O)C(=O)NC(C(C)O)C(=O)N1CCCC1C(=O)N1CC(N)CC1C(=O)NC(CC(=O)O)C(=O)N2 (centres unmarked) [compound 66]	< 100	
CC(C)CC1NC(=O)C(Cc2cnc[nH]2)NC(=O)C(Cc2c[nH]c3ccccc23)NC(=O)C(C)NC(=O)C2CSSCC(NC(=O)C(Cc3c[nH]c4ccccc34)NC(=O)C(C(C)C)NC(=O)C(CC(C)C)NC(=O)C(CCC(=O)O)NC(=O)CNC1=O)C(=O)NC(C(C)O)C(=O)N1CCCC1C(=O)N1CC(N)CC1C(=O)NC(CC(=O)O)C(=O)N2 (centres unmarked) [compound 63]	< 100	
CC(C)CC1NC(=O)C(Cc2cnc[nH]2)NC(=O)C(Cc2c[nH]c3ccccc23)NC(=O)C(C)NC(=O)C2CSSCC(NC(=O)C(Cc3c[nH]c4ccc(Cl)cc34)NC(=O)C(C(C)C)NC(=O)C(CC(C)C)NC(=O)C(CCC(=O)O)NC(=O)CNC1=O)C(=O)NC(C(C)O)C(=O)N1CCCC1C(=O)N1CC(N)CC1C(=O)NC(CC(=O)O)C(=O)N2 (centres unmarked) [compound 62]	< 100	
CC(C)CC1NC(=O)C(Cc2cnc[nH]2)NC(=O)C(Cc2c[nH]c3ccccc23)NC(=O)C(C)NC(=O)C2CSSCC(NC(=O)C(Cc3c[nH]c4ccccc34)NC(=O)C(C(C)C)NC(=O)C(CC(C)C)NC(=O)C(CCC(=O)O)NC(=O)CNC1=O)C(=O)NC(C(C)O)C(=O)N1CCCC1C(=O)N1CC(N)CC1C(=O)NC(CC(=O)O)C(=O)N2 (centres unmarked) [compound 56]	< 100	
C#CCCCC(=O)NC1CC2C(=O)NC(CC(=O)O)C(=O)NC3CSSCC(NC(=O)C(Cc4c[nH]c5ccccc45)NC(=O)C(C(C)C)NC(=O)C(CC(C)C)NC(=O)C(CCC(=O)O)NC(=O)CNC(=O)C(CC(C)C)NC(=O)C(Cc4cnc[nH]4)NC(=O)C(Cc4c[nH]c5ccccc45)NC(=O)C(C)NC3=O)C(=O)NC(C(C)O)C(=O)N3CCCC3C(=O)N2C1 (centres unmarked) [compound 75]	< 100	

— patent US20260083851A1 (AVILAR THERAPEUTICS, INC., priority 2022, published 2026)
